Assay results reported in PubChem BioAssay (NCI).
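Each compound was tested at five concentrations against cells in 96-well plates for 48 hours. The concentration for 50% growth inhibition is given as GI50. The concentration for full growth arrest is given as TGI.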

Columns and labels:
Experiment in all cases: growth of human tumour cells (NCI), 48 h
[1] = tested on: HOP-92 NSCLC
[2] = tested on: HCT-15 colon
[3] = tested on: IGROV1 ovarian
[4] = tested on: HL-60(TB) leukemia
[5] = tested on: CCRF-CEM leukemia
[6] = tested on: HCT-116 colon
[7] = tested on: HT29 colon
[8] = tested on: MDA-MB-231 breast
[9] = tested on: MCF7 breast
[10] = tested on: DU-145 prostate

SMILES | TGI [1] [µM] | TGI [2] [µM] | TGI [3] [µM] | TGI [4] [µM] | TGI [5] [µM] | TGI [6] [µM] | TGI [7] [µM] | GI50 [1] [µM] | GI50 [2] [µM] | GI50 [3] [µM] | GI50 [8] [µM] | TGI [8] [µM] | GI50 [4] [µM] | GI50 [5] [µM] | GI50 [6] [µM] | TGI [9] [µM] | GI50 [7] [µM] | GI50 [10] [µM] | TGI [10] [µM] | GI50 [9] [µM]
O=C(Nc1nc2ccc([N+](=O)[O-])cc2s1)C(=O)C(C(=O)c1ccncc1)C1OC(=O)c2ccccc21 (stereo not drawn) | > 100 | > 100 | > 100 | > 100 | > 100 | > 100 | > 100 |  |  |  |  |  |  |  |  |  |  |  |  | 
O=C1C(=O)N(c2nccs2)C(=O)C(=O)C1c1nc2ccccc2s1 | > 100 | > 100 | > 100 |  |  | > 100 | > 100 |  |  |  |  |  |  |  |  |  |  |  |  | 
O=C1c2ccccc2-c2c1c1ccc([N+](=O)[O-])cc1c(=O)n2CCCNCCO | 0.0899 | 1.69 | 2.45 | 1.52 | 1.09 | 0.441 | 0.82 | 0.0259 | 0.276 | 0.515 | 1.95 | 3.83 | 0.242 | 0.023 | 0.0612 | 1.31 | 0.053 |  |  | 
S=c1sc2cscc2s1 | 70.3 | > 100 | > 100 | 81.5 | 78 | 37.7 | > 100 |  |  |  |  |  |  |  |  |  |  |  |  | 
O=C(NC1C2CC3CC(C2)CC1C3)/C(Cl)=C1/Sc2ccccc2NC1=O (stereo not drawn) | > 100 | > 100 | > 100 | > 100 | > 100 | > 100 | > 100 |  |  |  |  |  |  |  |  |  |  |  |  | 
OCC(O)C(O)C(O)c1nn(-c2ccccc2)c2nc3cc(Cl)c(Cl)cc3nc12 (stereo not drawn) |  |  | > 100 | 91.2 | > 100 | > 100 | 57 |  |  |  |  |  |  |  |  |  |  |  |  | 
CS(=O)(=O)N(CCC#N)c1ccc(C=O)cc1 |  | > 100 | > 100 | > 100 |  | > 100 | > 100 |  |  |  |  |  |  |  |  |  |  |  |  | 
COc1ccc2c(CCNC(=O)/C=C/c3ccccc3)c(C(C)=O)[nH]c2c1[N+](=O)[O-] |  | > 100 | 56.2 | > 100 | > 100 | 87.2 | > 100 |  |  |  |  |  |  |  |  |  |  |  |  | 
O=C(O)c1ccccc1N=Nc1ccc2oc(=O)c(C(=O)Nc3ccccc3)cc2c1 |  | > 100 | > 100 | 66.9 | > 100 | > 100 | > 100 |  |  |  |  |  |  |  |  |  |  |  |  | 
O=c1cccccc1[O-].O=c1cccccc1[O-].O=c1cccccc1[O-].[Ce+3] | 89.9 | > 100 | 88.4 | 89 | > 100 | 54.3 | > 100 |  |  |  |  |  |  |  |  |  |  |  |  | 
Cc1ccccc1C(=O)Oc1ccc(OCc2ccccc2)cc1 | > 100 | > 100 | > 100 | > 100 | > 100 | > 100 | > 100 |  |  |  |  |  |  |  |  |  |  |  |  | 
COC12CCC(C(C(=O)c3ccccc3)=C1C(=O)c1ccccc1)C(O)C2 (stereo not drawn) | > 100 | > 100 | > 100 | > 100 | > 100 | > 100 | > 100 |  |  |  |  |  |  |  |  |  |  |  |  | 
COC(=O)[C@]12CC[C@@H](C)[C@H](C)[C@@H]1C1=CC[C@@H]3[C@@]4(C)C(C=O)=C[C@@](C)(COS(C)(=O)=O)C4[C@H](O)C[C@@]3(C)[C@]1(C)CC2 (stereo partly drawn) | 5.56 | 2.87 | 7.36 | 4.24 | 3.22 | 2.57 | 3.5 | 2.39 | 1.34 | 2.58 |  |  | 1.17 | 0.782 | 1.1 | 3.63 | 1.64 | 1.69 | 3.41 | 1.19
CNC1=C(C(=O)OC)SC(c2ccccc2)(c2ccccc2)SC1 | > 100 | > 100 |  | 58.2 |  | > 100 | > 100 | 20.7 | 9.36 |  | 45.8 | > 100 | 12 |  | 9.22 | > 100 | 20.9 | 20.4 | > 100 | 11.6
CN(CC(=O)O)Cc1oc(CO)cc(=O)c1O | > 100 | > 100 | > 100 | 76.5 | > 100 | > 100 | > 100 |  |  |  |  | > 100 |  |  |  | > 100 |  |  |  | 
CCOC(=O)c1ccc(N2C(=O)Cc3ccccc3C2=O)cc1 |  | > 100 | > 100 |  |  | > 100 | > 100 |  |  |  |  |  |  |  |  |  |  |  |  | 
CC1(C(=O)O)CCOc2ccccc21 (stereo not drawn) | > 100 | > 100 | > 100 | > 100 | > 100 | > 100 | > 100 |  |  |  |  |  |  |  |  |  |  |  |  | 
CCOC(=O)C1=C(Nc2ccc(Br)cc2)OC/C1=N\NC(=O)c1ccccc1O |  | > 65.3 | > 100 | 37.2 | 34.3 | > 62 | > 100 |  |  |  |  |  |  |  |  |  |  |  |  | 
NCc1c(C(N)=O)ncn1Cc1ccccc1 | > 100 | > 100 | > 100 | > 100 | > 100 | > 100 | > 100 |  |  |  |  |  |  |  |  |  |  |  |  | 
